Measurements published in patent EP0519427A2, “N-substituted-3-iodopropiolamide, production and use thereof” (priority 1991, dated 1992).

Columns and labels:
Test in all cases: Fungicide activity for wood fungicide (rating of fungi growth on treated wood)
Type in all cases: cell-based
Details in all cases: beech specimens dipped 3 min in fungicide solution, 4 weeks culture; rating 0 (no growth) to 3; mean of 6 specimens
[1] = test system: Aspergillus niger van Tieghem IFO 6341
Experimental: (§1) This test was conducted according to Specification No.2 of Japan Wood Preserving Association, enacted in 1979 and titled "Test methods of fungicide activity for wood fungicide".
(§2) • ① Aspergillus niger van Tieghem IFO 6341 = ATCC 6275 • ② Penicillium funiculosum Thom (formerly : Penicillium luteum Zukal) IFO 6345 = ATCC 9644 • ③ Rhizopus javanicus Takeda (formerly : Rhizopus nigricans Ehrenberg S.N. 32) IFO 6354 • ④ Aureobasidium pullulans (de Bary) Arnaud IFO 6353 = IAM (H. Iizuka, F-24) • ⑤ Gliocladium virens Miller, Gidden & Fosteb IFO 6355 = ATCC 9645 (formerly : Trichoderma viride, T.I.)
(§3) The fungi ① , ② , ③ and ⑤ are classified as fungi imperfecti, and the fungus ④ as blue stain fungus.
(§4) The Culture medium comprised the potato-sap agar culture medium (specified in the Japan Industrial Standard (JIS) Z 2911- 1960) of 50 ml, put in the conical flask of 100 ml, sterilized by steam at 1.4-1.6 kgf/cm² .G (137.2-156.8 KPa) for 30 minutes.
(§5) The fungi to be used were inoculated into the culture medium specified in the previous section and were cultured at 26 ± 2 °C under the relative humidity of 70-80 % for two weeks.
(§6) The potato sap of 50 ml, sterilized, cooled to room temperature and to which dioctyl sodium sulfosuccinate, a wetting agent, was added so as to become 0.005 %, was dropped to the fully breeding fungi layer, and was agitated with a platinum spatula in such a way that the spore was torn off. The resulting liquid filtered by sterilized gauze was the spore suspension.
(§7) 3-5-1 A Petri dish measured 90-100 mm in diameter and 20 mm in height.
(§8) 3-5-2 Agar liquid (which has no nutrients) of 2 % sterilized by steam was dropped onto the Petri dish sterilized by dry heat, and then was solidified.
(§9) 3-5-3 Three mm diameter sterilized glass bars or plastic nets made of polypropylene, etc. were placed to prevent the test specimens from touching with agar directly.
(§10) 3-6-1 The type of trees for wood specimens was beech. The cross section was of grain face, and the dimension was 20 mm wide 3 mm thick and 50 mm long.
(§11) 3-6-2 Wood specimens were supplied with nutrients in such a way that they were dipped into the potato-sap (the one in the section 3-2, but agar was not added) for 3 minutes.
(§12) 3-6-3 Nutrient-supplied wood specimens, after drying at 60 °C, were used for testing immediately. They were temporarily stored at 0 °C, but they were served to tests as soon as possible.
(§13) The test specimens were of two types, treated and untreated speciments. The treated specimens referred to the one treated with fungicide. The untreated specimens were of two types, the one really untreated and the other treated with solvent only.
(§14) 3-7-2-1 Nutrients-supplied wood specimens were dried at 60 ± 2 °C, and then their weights (W₀) were measured. Test specimens of 10-20 pieces were piled up in a one liter beaker in such a way that two specimens constant space apart from each other were alternately put on the other two specimens also constant space apart from each other. On the top of the two specimens, a weight was placed. Through the test specimens thus arranged, the fungicide solution was introduced. The level of the fungicide solution was one centimeter above the top specimens. The test specimens were dipped for three minutes after the fungicide solution introduction.
(§15) After finishing dipping, the test specimens were wiped softly, and then the weights (W₁) were measured immediately. As control experiment, the same procedure as the above was done using solvent without fungicide.
(§16) 3-7-2-2 The amounts of solution pick-up and fungicide pick-up were calculated with the following equations: The amount of solution absorption: RL = W₁ - W₀ [formula] The amount of fungicide absorption: Rc = RL × fungicide concentration [formula] 3-7-2-3 Wood specimens treated were placed without contacting each other, then were air-dried for two days, and then served as the treated test specimens. […]

[2] = test system: Aureobasidium pullulans (de Bary) Arnaud IFO 6353
Experimental: as §1, §2, §3, §4, §5, §6, §7, §8, §9, §10, §11, §12, §13, §14, §15, §16

[3] = test system: Gliocladium virens Miller, Gidden & Fosteb IFO 6355
Experimental: as §1, §2, §3, §4, §5, §6, §7, §8, §9, §10, §11, §12, §13, §14, §15, §16

[4] = test system: Penicillium funiculosum Thom IFO 6345
Experimental: as §1, §2, §3, §4, §5, §6, §7, §8, §9, §10, §11, §12, §13, §14, §15, §16

[5] = test system: Rhizopus javanicus Takeda IFO 6354
Experimental: as §1, §2, §3, §4, §5, §6, §7, §8, §9, §10, §11, §12, §13, §14, §15, §16

## CC(C)(C)NC(=O)C#CI [Example 1, N-(tert-Butyl)-3-iodopropiolamide]
[1]
  Average rating value, A₁ : Aspergillus Niger (IFO 6341): 0.0
[2]
  Average rating value, A₄ : Aureobasidium pullulans (IFO 6353): 0.0
[3]
  Average rating value, A₅ : Gliocladium virens (IFO 6355): 0.0
[4]
  Average rating value, A₂ : Penicillium funiculosum (IFO 6345): 0.0
[5]
  Average rating value, A₃ : Rhizopus javanicus (IFO 6354): 2.0

## CCCCCCCCCCNC(=O)C#CI [Example 2, N-(n-Decyl)-3-iodopropiolamide]
[1]
  Average rating value, A₁ : Aspergillus Niger (IFO 6341): 3.0
[2]
  Average rating value, A₄ : Aureobasidium pullulans (IFO 6353): 0.0
[3]
  Average rating value, A₅ : Gliocladium virens (IFO 6355): 1.3
[4]
  Average rating value, A₂ : Penicillium funiculosum (IFO 6345): 2.0
[5]
  Average rating value, A₃ : Rhizopus javanicus (IFO 6354): 3.0

## CCCCNC(=O)C#CI [Example 4, N-(n-Butyl)-3-iodopropiolamide]
[1]
  Average rating value, A₁ : Aspergillus Niger (IFO 6341): 0.0
[2]
  Average rating value, A₄ : Aureobasidium pullulans (IFO 6353): 0.0
[3]
  Average rating value, A₅ : Gliocladium virens (IFO 6355): 1.0
[4]
  Average rating value, A₂ : Penicillium funiculosum (IFO 6345): 0.0
[5]
  Average rating value, A₃ : Rhizopus javanicus (IFO 6354): 0.0

## CCC(C)NC(=O)C#CI (centres unmarked) [Example 5, N-(sec-Butyl)-3-iodopropiolamide]
[1]
  Average rating value, A₁ : Aspergillus Niger (IFO 6341): 0.0
[2]
  Average rating value, A₄ : Aureobasidium pullulans (IFO 6353): 0.0
[3]
  Average rating value, A₅ : Gliocladium virens (IFO 6355): 1.3
[4]
  Average rating value, A₂ : Penicillium funiculosum (IFO 6345): 0.0
[5]
  Average rating value, A₃ : Rhizopus javanicus (IFO 6354): 3.0

## CC(C)CNC(=O)C#CI [Example 6, N-Isobutyl-3-iodopropiolamide]
[1]
  Average rating value, A₁ : Aspergillus Niger (IFO 6341): 0.0
[2]
  Average rating value, A₄ : Aureobasidium pullulans (IFO 6353): 0.0
[3]
  Average rating value, A₅ : Gliocladium virens (IFO 6355): 0.0
[4]
  Average rating value, A₂ : Penicillium funiculosum (IFO 6345): 0.0
[5]
  Average rating value, A₃ : Rhizopus javanicus (IFO 6354): 3.0

## CCCCCNC(=O)C#CI [Example 7, N-(n-Pentyl)-3-iodopropiolamide]
[1]
  Average rating value, A₁ : Aspergillus Niger (IFO 6341): 0.2
[2]
  Average rating value, A₄ : Aureobasidium pullulans (IFO 6353): 0.0
[3]
  Average rating value, A₅ : Gliocladium virens (IFO 6355): 1.8
[4]
  Average rating value, A₂ : Penicillium funiculosum (IFO 6345): 0.2
[5]
  Average rating value, A₃ : Rhizopus javanicus (IFO 6354): 3.0

## CCCCCCNC(=O)C#CI [Example 8, N-(n-Hexyl)-3-iodopropiolamide]
[1]
  Average rating value, A₁ : Aspergillus Niger (IFO 6341): 0.3
[2]
  Average rating value, A₄ : Aureobasidium pullulans (IFO 6353): 0.0
[3]
  Average rating value, A₅ : Gliocladium virens (IFO 6355): 0.2
[4]
  Average rating value, A₂ : Penicillium funiculosum (IFO 6345): 0.0
[5]
  Average rating value, A₃ : Rhizopus javanicus (IFO 6354): 3.0

## CCCCCCCNC(=O)C#CI [Example 9, N-(n-Heptyl)-3-iodopropiolamide]
[1]
  Average rating value, A₁ : Aspergillus Niger (IFO 6341): 1.7
[2]
  Average rating value, A₄ : Aureobasidium pullulans (IFO 6353): 0.3
[3]
  Average rating value, A₅ : Gliocladium virens (IFO 6355): 1.5
[4]
  Average rating value, A₂ : Penicillium funiculosum (IFO 6345): 1.0
[5]
  Average rating value, A₃ : Rhizopus javanicus (IFO 6354): 3.0

## CCCCCCCCNC(=O)C#CI [Example 10, N-(n-Octyl)-3-iodopropiolamide]
[1]
  Average rating value, A₁ : Aspergillus Niger (IFO 6341): 2.7
[2]
  Average rating value, A₄ : Aureobasidium pullulans (IFO 6353): 0.0
[3]
  Average rating value, A₅ : Gliocladium virens (IFO 6355): 2.2
[4]
  Average rating value, A₂ : Penicillium funiculosum (IFO 6345): 0.3
[5]
  Average rating value, A₃ : Rhizopus javanicus (IFO 6354): 3.0

## CCCCCCCCCNC(=O)C#CI [Example 11, N-(n-Nonyl)-3-iodopropiolamide]
[1]
  Average rating value, A₁ : Aspergillus Niger (IFO 6341): 3.0
[2]
  Average rating value, A₄ : Aureobasidium pullulans (IFO 6353): 1.7
[3]
  Average rating value, A₅ : Gliocladium virens (IFO 6355): 2.8
[4]
  Average rating value, A₂ : Penicillium funiculosum (IFO 6345): 1.8
[5]
  Average rating value, A₃ : Rhizopus javanicus (IFO 6354): 3.0
